The values below come from PubChem BioAssay (NCI).

Some test systems named below: A498 renal; DMS 114 small cell lung; HCC-2998 colon; HT29 colon; MALME-3M melanoma; NCI-H23 lung; NCI-H226 lung; OVCAR-3 ovarian; HOP-18 NSCLC; BT-549 breast.
What all share (assay): inhibition of tumour cell growth, NCI panel, 48 h

SMILES strings stand for the structures. Several values for one entry are separate records, joined by “and”; a condition that tells them apart may be missing. Identical values can stand only once.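 The compound was tested at five concentrations on cells cultured in 96-well plates, with a 48-hour exposure period. GI50 marks 50% less growth. Definition used: TGI = concentration required for complete inhibition of growth.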

Regarding `O=C1c2ccccc2C(=O)N1C/C=N/NS(=O)(=O)c1cccc([N+](=O)[O-])c1`, the TGI in the assay on A498 renal, in the assay on DMS 114 small cell lung, in the assay on HCC-2998 colon, in the assay with HT29 colon, with MALME-3M melanoma and in the assay with NCI-H23 lung was greater than 100 µM throughout.

Turning to `CN(N=O)C(=O)NC(CCCCNC(=O)OCc1ccccc1)C(=O)OCc1ccccc1` (configuration not stated), the TGI is greater than 100 µM in the assay on A498 renal; 72.6 µM in the assay with DMS 114 small cell lung; greater than 100 µM with HCC-2998 colon; greater than 100 µM in the assay with HT29 colon; 89.6 µM in the assay with MALME-3M melanoma; greater than 100 µM in the assay on NCI-H226 lung. Also, the TGI with NCI-H23 lung amounted to 51.3 µM; in the assay on OVCAR-3 ovarian, 98.1 µM.

As to `O=C(O)c1ccccc1NS(=O)(=O)c1ccc(Cl)cc1`, the TGI in the assay with DMS 114 small cell lung, in the assay on HCC-2998 colon, in the assay with HOP-18 NSCLC, in the assay with HT29 colon, in the assay with MALME-3M melanoma and in the assay with NCI-H226 lung was greater than 100 µM in each case. Further, the TGI with NCI-H23 lung is greater than 100 µM.

`Cc1cccc(-c2nc(=S)[nH][nH]2)c1`: the TGI with A498 renal, with HCC-2998 colon, in the assay on HOP-18 NSCLC, with HT29 colon, in the assay on MALME-3M melanoma and in the assay on NCI-H226 lung was greater than 100 µM throughout. Moreover, the TGI in the assay on NCI-H23 lung and in the assay on OVCAR-3 ovarian was greater than 100 µM throughout.

As to `c1ccc2[nH]c(-c3ccc(Nc4nc(N5CCCC5)nc5[nH]ncc45)cc3)nc2c1`, the GI50 in the assay with A498 renal is 1.51 µM; with BT-549 breast it was 1.68 µM; with HCC-2998 colon, 0.294 µM; in the assay on HT29 colon, 0.211 µM; with MALME-3M melanoma, 0.314 µM; with NCI-H226 lung it was 1.8 µM. For the same compound, the GI50 in the assay with NCI-H23 lung is 0.808 µM; in the assay with OVCAR-3 ovarian it was 0.753 µM. Also, the TGI with A498 renal was 3.01 µM; in the assay with BT-549 breast, 3.47 µM; in the assay on HCC-2998 colon, 0.826 µM; in the assay on HT29 colon it was 0.495 µM; in the assay on MALME-3M melanoma it was 1.3 µM; with NCI-H226 lung, 4.01 µM. In addition, the TGI in the assay with NCI-H23 lung is 2.7 µM; with OVCAR-3 ovarian, 2.81 µM.

As for `CC[C@@H]1C(=O)N(C)c2cnc(Nc3ccc(C(=O)NC4CCC(N5CCN(CC6CC6)CC5)CC4)cc3OC)nc2N1C(C)C` (some centres not stated), the GI50 was 0.0284 µM and 0.0338 µM in the assay on A498 renal; 0.078 µM and 0.0387 µM in the assay on BT-549 breast; 0.0289 µM and 0.0374 µM in the assay with HCC-2998 colon; 0.00436 µM and < 0.01 µM with HT29 colon; 0.607 µM and 1.39 µM in the assay on MALME-3M melanoma; 0.0158 µM and 0.028 µM in the assay on NCI-H23 lung. For the same compound, the GI50 in the assay with OVCAR-3 ovarian is 0.013 µM and < 0.0161 µM. For the same compound, the TGI is 0.236 µM and 0.252 µM in the assay with A498 renal; > 10 µM and 6.44 µM with BT-549 breast; > 4.12 µM and 2.83 µM in the assay with HCC-2998 colon; 2.07 µM and 1.35 µM in the assay with HT29 colon; > 4.91 µM and 3.08 µM with MALME-3M melanoma; greater than 10 µM in the assay on NCI-H226 lung. In addition, in the assay with NCI-H23 lung, the TGI is > 10 µM and 2.99 µM.

With `C[C@]12CC[C@H]3[C@@H](CCC4=CC(=O)CC[C@@]43C)[C@]1(O)CC[C@]2(O)C(=O)CO`, the TGI in the assay on A498 renal, with BT-549 breast, in the assay on HCC-2998 colon, in the assay with HT29 colon, with MALME-3M melanoma and in the assay on NCI-H226 lung was greater than 100 µM each time. For the same compound, the TGI in the assay on NCI-H23 lung and in the assay on OVCAR-3 ovarian was greater than 100 µM in each case.

Consider `CC(=O)Nc1ccc(CC[C@H]2CCC/C=C/[C@@H]3C[C@H](O)C[C@H]3[C@H](O)/C=C/C(=O)O2)cc1`, for which the GI50 was 0.016 µM in the assay with A498 renal; 0.182 µM with BT-549 breast; 0.0781 µM in the assay with HCC-2998 colon; 0.119 µM with HT29 colon; 0.257 µM with MALME-3M melanoma; 0.0667 µM with NCI-H226 lung. The GI50 is 0.188 µM in the assay on NCI-H23 lung and 0.217 µM with OVCAR-3 ovarian. Moreover, the TGI is 0.0475 µM with A498 renal; greater than 100 µM in the assay on BT-549 breast; 0.951 µM in the assay with HT29 colon; 0.573 µM in the assay on MALME-3M melanoma; 0.295 µM in the assay with NCI-H226 lung; 0.759 µM with NCI-H23 lung. In addition, the TGI in the assay with OVCAR-3 ovarian is 0.533 µM.

For the compound `COc1cc2c(cc1OCCCCCOc1ccc(-c3nc4ccccc4s3)cc1)N=C[C@@H]1CCCN1C2=O`, the GI50 in the assay on A498 renal was 5.29 µM; in the assay with BT-549 breast, 3.45 µM; in the assay with HCC-2998 colon, 3.02 µM; in the assay on HT29 colon it was 1.58 µM; with MALME-3M melanoma, 12.5 µM; with NCI-H226 lung it was 3.02 µM. Also, the GI50 in the assay on NCI-H23 lung was 2.6 µM; with OVCAR-3 ovarian, 1.54 µM. Moreover, the TGI with A498 renal came out at 11.5 µM; in the assay with BT-549 breast it was 16.4 µM; with HCC-2998 colon, 9.06 µM; with HT29 colon, 18 µM; in the assay on MALME-3M melanoma, 37.9 µM; in the assay on NCI-H226 lung it was 10.4 µM. Besides, the TGI in the assay with NCI-H23 lung is 10.5 µM; in the assay on OVCAR-3 ovarian, greater than 44 µM.

For the compound `CN(C)C(=C1C(Br)=C(Br)C(Br)=C1Br)N(C)C`, the TGI in the assay on DMS 114 small cell lung, in the assay with HCC-2998 colon, in the assay with HOP-18 NSCLC, in the assay on HT29 colon, with MALME-3M melanoma and in the assay with NCI-H23 lung was greater than 100 µM in each case. Besides, the TGI with OVCAR-3 ovarian is greater than 100 µM.

With `Clc1ccc2c(NC3CCC(NC4CCCCC4)CC3)ccnc2c1` (configuration not stated), the GI50 was 4.07 µM in the assay with A498 renal; 12.3 µM with BT-549 breast; 2.49 µM with HCC-2998 colon; 1.57 µM in the assay with HT29 colon; 2.43 µM in the assay with MALME-3M melanoma; 12.8 µM in the assay with NCI-H226 lung. For the same compound, the GI50 with NCI-H23 lung is 7.74 µM; with OVCAR-3 ovarian, 5.34 µM. Also, the TGI with A498 renal came to 27.4 µM; in the assay on BT-549 breast it was 25.1 µM; in the assay with HCC-2998 colon, 8.13 µM; in the assay on HT29 colon it was 7.88 µM; with MALME-3M melanoma it was 5.1 µM; with NCI-H226 lung, 46.5 µM. The TGI is 35.9 µM in the assay with NCI-H23 lung and 23.2 µM in the assay on OVCAR-3 ovarian.

Take `COc1cc(OC)c(OC)cc1/C=C/c1ccccn1`: the TGI in the assay with A498 renal, with BT-549 breast, with HCC-2998 colon, in the assay on HT29 colon, in the assay with MALME-3M melanoma and in the assay on NCI-H226 lung was greater than 10 µM each time. The TGI in the assay with NCI-H23 lung and in the assay on OVCAR-3 ovarian was greater than 10 µM each time.

For the compound `O=S1(=O)[C@H](c2ccccc2)c2c(-c3ccccc3)sc(-c3ccccc3)c2[C@@H]1c1ccccc1`, the TGI with DMS 114 small cell lung, with HCC-2998 colon, in the assay with HOP-18 NSCLC, with HT29 colon, in the assay on MALME-3M melanoma and in the assay on NCI-H23 lung was greater than 100 µM throughout. Further, the TGI in the assay with OVCAR-3 ovarian was greater than 100 µM.

As for `CCCCCOC(=O)c1c(C)[nH]c(/C=C2\N=C(c3ccc[nH]3)C=C2OC)c1C`, the GI50 in the assay on A498 renal was 0.124 µM; in the assay on BT-549 breast, 0.0469 µM; in the assay with HCC-2998 colon, 0.0285 µM; with HT29 colon, 0.0154 µM; with MALME-3M melanoma it was 0.32 µM; in the assay on NCI-H226 lung it was 0.222 µM. The figures for the GI50 in the assay with NCI-H23 lung and in the assay on OVCAR-3 ovarian were 0.057 µM and 0.0423 µM, respectively. Besides, the TGI in the assay on A498 renal came out at 1.02 µM; in the assay with BT-549 breast, 1.1 µM; in the assay on HCC-2998 colon, 1.39 µM; in the assay with HT29 colon, 1.34 µM; in the assay on MALME-3M melanoma, 1.97 µM; in the assay with NCI-H226 lung it was 2.13 µM. Besides, the figures for the TGI in the assay on NCI-H23 lung and in the assay with OVCAR-3 ovarian were 1.47 µM and 0.615 µM, respectively.

In the case of `CCOc1ccc2nc3cc(N)ccc3c(N)c2c1`, the GI50 in the assay with A498 renal was 2.78 µM and 12.7 µM; in the assay on BT-549 breast, 2.23 µM and 1.8 µM; in the assay with HCC-2998 colon, 3.24 µM and 1.43 µM; in the assay on HT29 colon, 5.77 µM and 5.22 µM; with MALME-3M melanoma, 1.22 µM and 1.54 µM; in the assay with NCI-H226 lung it was 6.49 µM and 2.55 µM. Moreover, the GI50 in the assay on NCI-H23 lung was 2.2 µM and 2.31 µM; with OVCAR-3 ovarian, 2 µM and 1.91 µM. Further, the TGI in the assay with A498 renal was 29.1 µM and 37.5 µM; with BT-549 breast, 8.28 µM and 4.91 µM; in the assay with HCC-2998 colon, 13.9 µM and 4.72 µM; in the assay with HT29 colon it was 19.5 µM and 17.9 µM; in the assay with MALME-3M melanoma it was 3.23 µM and 3.95 µM; in the assay with NCI-H226 lung, 24.2 µM and 13.4 µM. The TGI in the assay with NCI-H23 lung is 13.2 µM and 11.3 µM; with OVCAR-3 ovarian, 7.25 µM and 10.5 µM.

Regarding `CCN(Cc1ccccc1)c1ccc(/C=C2\COc3ccccc3C2=O)cc1`, the GI50 was greater than 1000 µM in the assay on A498 renal; 340 µM in the assay on BT-549 breast; greater than 1000 µM in the assay with HCC-2998 colon; 135 µM in the assay with HT29 colon; greater than 1000 µM with MALME-3M melanoma; greater than 1000 µM with NCI-H226 lung. Also, the results for the GI50 in the assay with NCI-H23 lung and with OVCAR-3 ovarian were 818 µM and 288 µM, respectively. Moreover, the TGI with A498 renal, with BT-549 breast, in the assay with HCC-2998 colon, in the assay on HT29 colon, in the assay with MALME-3M melanoma and with NCI-H226 lung was greater than 1000 µM in each case. Moreover, the TGI in the assay on NCI-H23 lung and in the assay on OVCAR-3 ovarian was greater than 1000 µM throughout.

Take `O=C(Nc1ccc(Nc2ccc3c(c2)C(=O)c2ccccc2C3=O)c2c1C(=O)c1ccccc1C2=O)c1ccccc1`: the TGI with A498 renal was greater than 100 µM; with BT-549 breast, greater than 100 µM; with HCC-2998 colon it was 86.9 µM; with HT29 colon it was greater than 100 µM; in the assay with MALME-3M melanoma it was greater than 100 µM; in the assay on NCI-H226 lung it was greater than 100 µM. For the same compound, the TGI with NCI-H23 lung and in the assay on OVCAR-3 ovarian was greater than 100 µM throughout.
